Test results taken from patent publication US20210380547A1, “UREA DERIVATIVES FOR TREATING AND/OR PREVENTING CANCER” (CENTRE NATIONAL DE LA RECHERCHE SCIENTIFIQUE, priority 2018, published 2021).
Read-outs that look alike come from different tables or passages of the source.

Key:
[1] = target: T1, CXCR2 (Homo sapiens, UniProt P25025); experiment: CXCR2 membrane level by flow cytometry after CXCL8 stimulation in HuVEC; type: cell-based; conditions: 2.5 μM, CXCL8 25 ng/ml 1 h
T1 construct: endogenous in cells; host or cells: HuVEC (healthy endothelial cells)
Procedure: A: HuVEC were stimulated with 25 ng/ml CXCL8 during 1 h. Membrane-associated CXCR2 protein levels were quantified by flow cytometry;
CXCR2 measurement: After stimulation, cells were washed with PBS and were stained with the CXCR2-PE antibody (Miltenyi) for 30 min at room temperature. Fluorescence was measured by using the FL2 (PE) channels of a fluorescence-activated cell sorter apparatus (Calibur cytometer).
Since CXCR2 is internalized in endothelial cells when activated by CXCL-8, the effect of compound #1 has been investigated on CXCR2 recycling on HuVEC cells.

[2] = tested on: A498 cells; experiment: Tumor xenograft experiment (ectopic model of RCC); type: in vivo, mice
Procedure: (§1) Cells were lysed in buffer containing 3% SDS, 10% glycerol and 0.825 mM Na2HPO4. 30 to 50 μg of proteins were separated on 10% SDS-PAGE, transferred onto a PVDF membrane (Immobilon, Millipore, France) and then exposed to the appropriate antibodies. Proteins were visualized with the ECL system using horseradish peroxidase-conjugated anti-rabbit or anti-mouse secondary antibodies.
One microgram of total RNA was used for the reverse transcription, using the QuantiTect Reverse Transcription kit (QIAGEN, Hilden, Germany), with a blend of oligo (dT) and random primers to prime first-strand synthesis. SYBR master mix plus (Eurogentec, Liege, Belgium) was used for qPCR. The mRNA level was normalized to 36B4 mRNA.
Ectopic model of RCC: seven million A498 cells were injected subcutaneously into the flank of 5-week-old nude (nu/nu) female mice (Janvier, France). The tumor volume was determined with a caliper (v=L*1^2*0.5). When the tumor reached 100 mm^3, mice were treated five a week for 4 weeks, by gavage with placebo (dextrose water vehicle) or compound #1 (50 mg/kg). This study was carried out in strict accordance with the recommendations in the Guide for the Care and Use of Laboratory Animals. Our experiments were approved by the “Comite national institutionnel d′éthique pour l'animal de laboratoire (CIEPAL)”
Sections from blocks of formol-fixed and paraffin-embedded tumors were examined for immunostaining. Sections were incubated with monoclonal anti-Ki67 (clone MIB1, DAKO, Ready to use) antibodies. Biotinylated secondary antibody (DAKO) was applied and binding was detected with the substrate diaminobenzidine against a hematoxylin counterstain.
Mice were xenografted with the highly aggressive ccRCC cells (A498), which form highly vascularized tumors.

[3] = tested on: A498; experiment: XTT cell viability assay, A498; type: cell-based, human; conditions: Homo sapiens, A498; XTT assay (48 h); standard deviation of 10%; read-out: EC50 (μM) Kidney A498
Procedure: (§2) Fifty microliters of sodium 3′-[1-phenylaminocarbonyl)-3,4-tetrazolium]-bis(4-methoxy-6-nitro) benzene sulfonic acid hydrate (XTT) reagent was added to each well. The assay is based on the cleavage of the yellow tetrazolium salt XTT to form an orange formazan dye by metabolically active cells. The absorbance of the formazan product, reflecting cell viability, was measured at 490 nm. Each assay was performed in quadruplicate.
(§3) Compounds #1-#14 have been assayed as potential anti-proliferative agents against a panel of human breast head and neck, and kidney tumor cells and hematological malignancies, selected on the basis of their aggressiveness (e.g. incurable triple-negative breast cancer cells: MDA-MB-231; kidney ccRCC cells: RCC4, A498 and 786-O and 786R; head and neck cancer cells: CAL33, CAL33RR, CAL27, and CAL27RR; acute myeloid cell lines: OCI-AML2, OCI-AML3, MolM13, and MolM14; myelodysplastic cell line: SM1; and chronic myeloid cell line: CML). All these cell lines share as common denominator the expression of CXCR1 and CXCR2. The EC50 values have been measured by a XTT colorimetric assay, and compared to those of SB-225002, used as a reference; the results are listed in Table 1.

[4] = tested on: 786R; experiment: XTT cell viability assay, 786R (sunitinib-resistant); type: cell-based, human; conditions: for EC50: XTT assay (48 h), sunitinib-resistant, standard deviation of 10%, read-out: EC50 (μM) Kidney 786R
Procedure: A, B: Naive (786-O, A), and sunitinib-resistant (786-R, B) 786-O cells, were treated with compound #1 or sunitinib (1 to 10 μM) for 48 hr. Cell viability was measured by XTT assays;
D, E: 786-O (D), 786-R (E), were treated with 2.5 μM compound #1 or 2.5 μM sunitinib for 24 h to 96 h. The cells metabolism was measured by XTT assay;
as §2, §3

[5] = tested on: ERK signaling pathway; experiment: Immunoblotting of p-ERK in CXCL5-stimulated HuVEC; type: cell-based; conditions: 5 μM pre-treatment 1 h, CXCL5 50 ng/ml 10 min
Procedure: E: HuVEC were pre-treated with 5 μM compound #1 for 1 h then stimulated with 50 ng/ml CXCL5 for 10 min. p-ERK levels were analyzed by immunoblotting. ERK and HSP60 served as loading controls *P<0.05; **P<0.01; ***P<0.001.
as §1

[6] = tested on: VEGFA-dependent HuVEC migration; experiment: Boyden chamber migration assay, VEGFA-dependent; type: cell-based; conditions: VEGFA (50 ng/ml), same concentration
Procedure: CXCL7 or VEGFA-stimulated chemotaxis assays were monitored using modified Boyden chambers containing polycarbonate membranes (8-μm pores, Transwell; Corning, Sigma). Cells were seeded on the upper side of the filters and chambers were placed on 24-well plates containing CXCL7 (50 ng/ml) or VEGFA (50 ng/ml). Cells were allowed to migrate for 24 hr at 37° C. in 5% CO2. Migratory cells on the lower membrane surface were fixed in 3% paraformaldehyde, stained with 0.1% crystal violet.

[7] = tested on: 786-O and 786-R cells; experiment: Clonogenicity (colony formation) assay, RCC cells; type: cell-based, human; conditions: 1 μM, 10 days
Procedure: G: Clonogenicity assays: RCC cells ([…] and 786-R) were treated with compound #1 or sunitinib (1 μM) and colored with Giemsa blue after 10 days (representative results of an experiment repeated trice);
Cells (5000 cells per condition) were treated or not with compound #1 and sunitinib, and cisplatin. Colonies were detected after 10 days of culture. Cells were then washed, fixed at room temperature for 20 min with 3% paraformaldehyde (PFA; Electron Microscopy Sciences) and colored by GIEMSA (Sigma)

T1 sequence (P25025 whole entry): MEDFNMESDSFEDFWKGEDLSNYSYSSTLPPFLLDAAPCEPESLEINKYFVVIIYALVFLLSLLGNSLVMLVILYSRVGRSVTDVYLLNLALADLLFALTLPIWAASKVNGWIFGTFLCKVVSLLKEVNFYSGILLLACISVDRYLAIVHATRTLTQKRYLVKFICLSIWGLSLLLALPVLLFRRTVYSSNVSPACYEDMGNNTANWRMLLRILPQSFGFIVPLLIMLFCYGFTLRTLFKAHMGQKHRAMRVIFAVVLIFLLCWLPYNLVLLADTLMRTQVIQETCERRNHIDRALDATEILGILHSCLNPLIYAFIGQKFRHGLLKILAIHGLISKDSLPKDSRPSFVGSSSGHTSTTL

O=C(Nc1cccc(Cl)c1)Nc1nc2ccc([N+](=O)[O-])cc2s1 [Compound #1, 1-(3-chlorophenyl)-3-(6-nitrobenzo[d]thiazol-2-yl)urea]
CXCL-8-dependent internalization of CXCR2 [1]: prevents the CXCL-8-dependent internalization of CXCR2 | reduction of the tumor weight ([2]; A498 xenograft, 50 mg/kg gavage, end of experiment): more than 35% | reduction of tumor volume ([2]; A498 xenograft, 50 mg/kg gavage, end of experiment (day 70)): more than 65% | mRNA level of CXCL5 in tumors ([2]; human, qPCR): significantly decreased | mRNA level of CXCL7 in tumors ([2]; human, qPCR): significantly decreased | mRNA level of CXCL8 in tumors ([2]; human, qPCR): significantly decreased | mRNA level of VEGFA in tumors ([2]; human, qPCR): not those of VEGFA | AKT phosphorylation in tumor lysates ([2]; immunoblotting): inhibits AKT | ERK phosphorylation in tumor lysates ([2]; immunoblotting): not ERK | weight of the animals ([2]; treated group, day 70): No weight loss | labelling of the proliferation marker Ki-67 ([2]; tumor immunostaining): significantly decreases | lowering of mRNA levels of murine CD31 ([2]; tumors, qPCR): more than 75% | EC50 [3]: 2.5 µM | time of treatment to total inhibition of proliferation ([4]; 786-R cells, 2.5 μM, XTT 24 h to 96 h): ~100 h | EC50 ([4]; Homo sapiens, 48 h): 2 µM | EC50 [4]: 2.5 µM | ERK signaling pathway (p-ERK) in HuVEC [5]: inhibition of the ERK signaling pathway | activity on VEGFA-stimulated HuVEC motility [6]: does not exert any visible activity | clonogenicity [7]: exerts a cytostatic effect
